In ChEMBL document CHEMBL1201862, “PubChem BioAssay data set” (2004):
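In this assay, cells in 96-well plates receive the compound at five concentrations for 48 hours. Endpoints are linearly interpolated between the surrounding concentrations. GI50: concentration for 50% inhibition of growth.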 Activity calls are given as the source filed them. Rule as the data show it: active = GI50 up to about 1.1 µM and inactive = higher.

Columns and labels:
Experiment in all cases: NCI anticancer screen, dose series, 48 h
A549 = test system: A549
COLO 205 = test system: COLO 205
DMS-114 = test system: DMS-114
DMS-273 = test system: DMS-273
HCT-116 = test system: HCT-116
HCT-15 = test system: HCT-15
HL-60 = test system: HL-60
K562 = test system: K562
LOX IMVI = test system: LOX IMVI
MOLT-4 = test system: MOLT-4
OVCAR-3 = test system: OVCAR-3
OVCAR-5 = test system: OVCAR-5
OVCAR-8 = test system: OVCAR-8
SK-MEL-28 = test system: SK-MEL-28
SK-OV-3 = test system: SK-OV-3
SNB-19 = test system: SNB-19
U-251 = test system: U-251
UACC-62 = test system: UACC-62
UO-31 = test system: UO-31
ACHN = test system: ACHN

| Structure (SMILES) | GI50 (A549) | GI50 (COLO 205) | GI50 (DMS-114) | GI50 (DMS-273) | GI50 (HCT-116) | GI50 (HCT-15) [µM] | GI50 (HL-60) | GI50 (K562) | GI50 (LOX IMVI) | GI50 (MOLT-4) | GI50 (OVCAR-3) | GI50 (OVCAR-5) | GI50 (OVCAR-8) | GI50 (SK-MEL-28) | GI50 (SK-OV-3) | GI50 (SNB-19) | GI50 (U-251) | GI50 (UACC-62) | GI50 (UO-31) | GI50 (ACHN) |
| --- | --- | --- | --- | --- | --- | --- | --- | --- | --- | --- | --- | --- | --- | --- | --- | --- | --- | --- | --- | --- |
| C=C1C(=O)OC2C1CC1OC2C(C)CCC/C(C)=C\CCC1(C)O (configuration not stated) | 29.7 µM (inactive) | 15.8 µM (inactive) | 11.6 µM (inactive) | 16.2 µM (inactive) | 13.5 µM (inactive) | 18.2 | 5.61 µM (inactive) | 12.7 µM (inactive) | 6.55 µM (inactive) | 8.15 µM (inactive) | 9.75 µM (inactive) | 69.2 µM (inactive) | 9.46 µM (inactive) | 16.4 µM (inactive) | 65.3 µM (inactive) | 49.1 µM (inactive) | 41.3 µM (inactive) | 9.04 µM (inactive) | 32.3 µM (inactive) | – |
| COc1ccc2c(c1)c1cc(OC)ccc1n2CCCCOc1ccc(-c2c3ccccc3c(-c3ccc(OCCCCn4c5ccc(OC)cc5c5cc(OC)ccc54)cc3)c3ccccc23)cc1 | > 100 µM (inactive) | > 100 µM (inactive) | > 100 µM (inactive) | > 100 µM (inactive) | > 100 µM (inactive) | > 100 | – | > 100 µM (inactive) | > 100 µM (inactive) | > 100 µM (inactive) | > 100 µM (inactive) | > 100 µM (inactive) | > 100 µM (inactive) | > 100 µM (inactive) | > 100 µM (inactive) | > 100 µM (inactive) | – | > 100 µM (inactive) | > 100 µM (inactive) | > 100 µM (inactive) |
| CCN(CC)CCCNc1ncc(C)c2[nH]c3ccncc3c12 | 4.91 µM (inactive) | 4.13 µM (inactive) | 7.8 µM (inactive) | 7.26 µM (inactive) | 6.58 µM (inactive) | 35.1 | 22 µM (inactive) | 14.8 µM (inactive) | 3.64 µM (inactive) | 2.65 µM (inactive) | 12.2 µM (inactive) | 4.7 µM (inactive) | 7.29 µM (inactive) | 12.9 µM (inactive) | 5.82 µM (inactive) | 15.1 µM (inactive) | 7.21 µM (inactive) | 8.99 µM (inactive) | 28.1 µM (inactive) | – |
| COc1ccc(C(=O)/C(Br)=C/C(=O)O)cc1 | 40.2 µM (inactive) | 18.7 µM (inactive) | 18.6 µM (inactive) | 9.82 µM (inactive) | – | 23.5 | 27.5 µM (inactive) | 29.5 µM (inactive) | 20.5 µM (inactive) | 17.6 µM (inactive) | – | 42.1 µM (inactive) | 21 µM (inactive) | 23.3 µM (inactive) | 69.8 µM (inactive) | 77.6 µM (inactive) | 15.6 µM (inactive) | 7.91 µM (inactive) | 37.2 µM (inactive) | 55 µM (inactive) |
| COc1cc(C2c3cc4c(cc3[C@@H](Nc3cnc5ccccc5c3)C3COC(=O)[C@H]23)OCO4)cc(OC)c1O (some centres not stated) | < 0.01 µM (active) | 1.28 µM (inactive) | 0.277 µM (active) | 0.047 µM (active) | 0.46 µM (active) | 0.148 | < 0.033 µM (active) | 0.649 µM (active) | 0.37 µM (active) | < 0.01 µM (active) | 1.65 µM (inactive) | 0.736 µM (active) | 0.346 µM (active) | 1.14 µM (inactive) | 0.615 µM (active) | 0.221 µM (active) | 0.238 µM (active) | 0.301 µM (active) | 0.275 µM (active) | – |
| COC1=CC(=O)C=C(OC)C1=O [2,6-DIMETHOXYQUINONE] | 57.1 µM (inactive) | 12.6 µM (inactive) | 5.81 µM (inactive) | 36.1 µM (inactive) | 6.49 µM (inactive) | 31.6 | 3.94 µM (inactive) | 7.1 µM (inactive) | 5.14 µM (inactive) | 1.49 µM (inactive) | 4.78 µM (inactive) | 28.1 µM (inactive) | 8.93 µM (inactive) | 21.8 µM (inactive) | 17.9 µM (inactive) | 13.6 µM (inactive) | 31.6 µM (inactive) | 5.33 µM (inactive) | 23.6 µM (inactive) | – |
